Assay results taken from patent publication US20240024273A1, “TOPICAL ADMINISTRATION OF 2-(DIETHYLAMINO)ETHYL 2-(4-ISOBUTYLPHENYL)PROPRIONATE FOR TREATMENT OF DISEASES” (TECHFIELDS PHARMA CO., LTD., priority 2020, published 2024).

What was measured:
[1] = tested on: osteoarthritis of the knee; assay: Second Phase 2 study: WOMAC (VAS) pain subscale score; type: in vivo, human
From the text: This is a Phase 2, multicenter, randomized, double blind (within dose), Ibuprofen-placebo controlled, parallel group, dose range finding study to evaluate the efficacy, safety, and PK of 2-(diethylamino)ethyl 2-(4-isobutylphenyl)propionate spray in adult subjects with clinically symptomatic OA of the knee. For subjects with bilateral knee pain, both knees will be treated, but the most symptomatic knee (ie, the most painful knee as measured by the Western Ontario and McMaster University Osteoarthritis Index [WOMAC® 3.1] pain subscale score at Screening) will be designated as the target knee for efficacy analyses. For subjects with unilateral knee pain, only the symptomatic (target) knee will be treated.
The VAS version of the WOMAC will be used for the Primary and Secondary Efficacy Endpoints. Efficacy endpoints will be assessed at Screening and Baseline (Day 1) and at the Week 2, Week 4, Week 8, and Week 12/EOS visits.
The Primary Efficacy Endpoint is the change from Baseline in the WOMAC (VAS) pain subscale score for the target knee at […] of treatment.
4.9.2. Secondary Efficacy Endpoints: • 1. Change from Baseline in the WOMAC (VAS) pain subscale score for the target knee at 2, 8, and 12 weeks of treatment; • 2. Change from Baseline in the WOMAC (VAS) stiffness subscale scores for the target knee and WOMAC (VAS) functional ability subscale scores at 2, 4, 8, and 12 weeks of treatment; • 3. Change from Baseline in the overall WOMAC (VAS) score at 2, 4, 8, and 12 weeks of treatment; • 4. Subject's global assessment of disease status of the target knee at 2, 4, 8, and 12 weeks of treatment; • 5. Subject's global assessment of response to therapy of the target knee at 2, 4, 8, and 12 weeks of treatment; • 6. Amount of rescue medication (acetaminophen) consumed per day for target knee pain.
The Primary Efficacy Endpoint is change from Baseline in the WOMAC (VAS) pain subscale score for the target knee at 4 weeks of treatment, and will be analyzed using an analysis of covariance (ANCOVA). Treatment will be included as a fixed class effect and WOMAC Baseline pain subscale score as covariates. The primary comparisons of interest will be the difference between active Group A (4.375 mg 2-(diethylamino)ethyl 2-(4-isobutylphenyl)propionate/knee) and combined placebo, active Group B (8.75 mg 2-(diethylamino)ethyl 2-(4-isobutylphenyl)propionate/knee) and combined placebo, and active Group C (17.5 mg 2-(diethylamino)ethyl 2-(4-isobutylphenyl)propionate/knee) and combined placebo.

[2] = tested on: osteoarthritis of the knee; assay: Second Phase 2 study: Subject's pain Assessment Scores (SPA); type: in vivo, human; details: for Subject's pain Assessment Scores, % of improvement from Oral Ibuprofen / Subject's pain Assessment Scores, % of improvement from Placebo / Subject's pain Assessment Scores, % of improvement from baseline / Subject's pain Assessment Scores, Changes from Baseline (LS Mean) / Subject's pain Assessment Scores, Week 12 (LS Mean) / Subject's pain Assessment Scores, Different from oral ibuprofen (LS Mean) / Subject's pain Assessment Scores, Different from placebo (LS Mean): all subjects
Description: Subjects will record the following information in a Daily Diary starting at Screening: the amount of knee pain in the target knee while walking during the preceding 24 hours (using a 100 mm visual analog scale [VAS]), the times and number of sprays for each administration of study medication, the times when the subject washes his/her knees and/or takes a shower, the number of tablets of rescue medication taken that day and the times taken, the reason for taking the rescue medication (e.g., knee pain, headache, low back pain), any other concomitant medications taken that day, and any AEs occurring that day.

[3] = 17.5 mg/knee BID, Week 12, first 130 subjects
[4] = 4.375 mg/knee BID (n = 23), first 130 subjects
[5] = 8.75 mg/knee BID (n = 24), first 130 subjects
[6] = 17.5 mg/knee BID (n = 19), first 130 subjects
[7] = Week 12, 4.375 mg/knee BID (n = 23), first 130 subjects
[8] = Week 12, 8.75 mg/knee BID (n = 24), first 130 subjects
[9] = Week 12, 17.5 mg/knee BID (n = 19), first 130 subjects
[10] = all subjects, 4.375 mg/knee BID, n = 49, Week 12
[11] = all subjects, 8.75 mg/knee BID, n = 54, Week 12
[12] = all subjects, 17.5 mg/knee BID, n = 52, Week 12
[13] = 4.375 mg/knee BID, n = 49, Week 12
[14] = 8.75 mg/knee BID, n = 54, Week 12
[15] = 17.5 mg/knee BID, n = 52, Week 12

## CCN(CC)CCOC(=O)C(C)c1ccc(CC(C)C)cc1 (stereo not drawn) [2-(diethylamino)ethyl 2-(4-isobutylphenyl)propionate]
[1]; [3]
  WOMAC pain, difference from oral ibuprofen (3×400 mg/day): −14.5 mm
  WOMAC pain, difference from placebo: −15.0 mm
[1]; Avg. of all patients, blinded, Middle Dose (4 spray/knee, 17.5 mg/knee) Cohort, Day 1
  WOMAC Pain Subscale Score, Day 1, Avg.: 61.0
[1]; Avg. of all patients, blinded, Middle Dose (4 spray/knee, 17.5 mg/knee) Cohort, Follow-up
  WOMAC Pain Subscale Score, Follow-up, Avg.: 38.9
[1]; Avg. of all patients, blinded, Middle Dose (4 spray/knee, 17.5 mg/knee) Cohort, Week 2
  WOMAC Pain Subscale Score, Week 2, Avg.: 46.0
[1]; Avg. of all patients, blinded, Middle Dose (4 spray/knee, 17.5 mg/knee) Cohort, Week 4
  WOMAC Pain Subscale Score, Week 4, Avg.: 40.5
[1]; Avg. of all patients, blinded, Middle Dose (4 spray/knee, 17.5 mg/knee) Cohort, Week 8
  WOMAC Pain Subscale Score, Week 8, Avg.: 35.9
[1]; Avg. of all patients, blinded, Middle Dose (4 spray/knee, 17.5 mg/knee) Cohort, Week 12
  WOMAC Pain Subscale Score, Week 12, Avg.: 34.5
[1]; [4]
  WOMAC Pain Subscale Scores, Baseline (LS Mean): 60.0 mm
[1]; [5]
  WOMAC Pain Subscale Scores, Baseline (LS Mean): 61.0 mm
[1]; [6]
  WOMAC Pain Subscale Scores, Baseline (LS Mean): 64.1 mm
[1]; [7]
  WOMAC Pain Subscale Scores, % of improvement from Oral Ibuprofen: −9.6%
  WOMAC Pain Subscale Scores, % of improvement from Placebo: −8.7%
  WOMAC Pain Subscale Scores, % of improvement from baseline: −41.8%
  WOMAC Pain Subscale Scores, Changes from Baseline (LS Mean): −25.7 mm
  WOMAC Pain Subscale Scores, Different from oral ibuprofen (LS Mean): −4.0 mm
  WOMAC Pain Subscale Scores, Different from placebo (LS Mean): −4.3 mm
  WOMAC Pain Subscale Scores, Week 12 (LS Mean): 34.3 mm
[1]; [8]
  WOMAC Pain Subscale Scores, % of improvement from Oral Ibuprofen: −13.2%
  WOMAC Pain Subscale Scores, % of improvement from Placebo: −12.3%
  WOMAC Pain Subscale Scores, % of improvement from baseline: −45.4%
  WOMAC Pain Subscale Scores, Changes from Baseline (LS Mean): −27.7 mm
  WOMAC Pain Subscale Scores, Different from oral ibuprofen (LS Mean): −6.1 mm
  WOMAC Pain Subscale Scores, Different from placebo (LS Mean): −6.6 mm
  WOMAC Pain Subscale Scores, Week 12 (LS Mean): 33.3 mm
[1]; [9]
  WOMAC Pain Subscale Scores, % of improvement from Oral Ibuprofen: −24.3%
  WOMAC Pain Subscale Scores, % of improvement from Placebo: −23.4%
  WOMAC Pain Subscale Scores, % of improvement from baseline: −56.5%
  WOMAC Pain Subscale Scores, Changes from Baseline (LS Mean): −36.2 mm
  WOMAC Pain Subscale Scores, Different from oral ibuprofen (LS Mean): −14.5 mm
  WOMAC Pain Subscale Scores, Different from placebo (LS Mean): −15.0 mm
  WOMAC Pain Subscale Scores, Week 12 (LS Mean): 27.9 mm
[1]; [10]
  WOMAC Pain Subscale Scores, % of improvement from Oral Ibuprofen: −0.7%
  WOMAC Pain Subscale Scores, % of improvement from Placebo: −5.2%
  WOMAC Pain Subscale Scores, % of improvement from baseline: −41.9%
  WOMAC Pain Subscale Scores, Changes from Baseline (LS Mean): −25.6 mm
  WOMAC Pain Subscale Scores, Week 12 (LS Mean): 35.5 mm
[1]; [11]
  WOMAC Pain Subscale Scores, % of improvement from Oral Ibuprofen: −4.9%
  WOMAC Pain Subscale Scores, % of improvement from Placebo: −9.4%
  WOMAC Pain Subscale Scores, % of improvement from baseline: −46.1%
  WOMAC Pain Subscale Scores, Changes from Baseline (LS Mean): −28.6 mm
  WOMAC Pain Subscale Scores, Different from oral ibuprofen (LS Mean): −3.2 mm
  WOMAC Pain Subscale Scores, Different from placebo (LS Mean): −6.0 mm
  WOMAC Pain Subscale Scores, Week 12 (LS Mean): 33.4 mm
[1]; [12]
  WOMAC Pain Subscale Scores, % of improvement from Oral Ibuprofen: −9.8%
  WOMAC Pain Subscale Scores, % of improvement from Placebo: −14.3%
  WOMAC Pain Subscale Scores, % of improvement from baseline: −51.0%
  WOMAC Pain Subscale Scores, Changes from Baseline (LS Mean): −31.7 mm
  WOMAC Pain Subscale Scores, Different from oral ibuprofen (LS Mean): −6.3 mm
  WOMAC Pain Subscale Scores, Different from placebo (LS Mean): −9.1 mm
  WOMAC Pain Subscale Scores, Week 12 (LS Mean): 30.5 mm
[2]; [3]
  SPA, difference from oral ibuprofen: −14.1 mm
  SPA, difference from placebo: −21.0 mm
[2]; [4]
  Subject’s pain Assessment Scores, Baseline (LS Mean): 59.7 mm
[2]; [5]
  Subject’s pain Assessment Scores, Baseline (LS Mean): 63.5 mm
[2]; [6]
  Subject’s pain Assessment Scores, Baseline (LS Mean): 68.6 mm
[2]; [7]
  Subject’s pain Assessment Scores, % of improvement from Oral Ibuprofen: −2.3%
  Subject’s pain Assessment Scores, % of improvement from baseline: −38.5%
  Subject’s pain Assessment Scores, % of improvement from placebo: −9.3%
  Subject’s pain Assessment Scores, Changes from Baseline (LS Mean): −23.0 mm
  Subject’s pain Assessment Scores, Different from oral ibuprofen (LS Mean): 2.8 mm
  Subject’s pain Assessment Scores, Different from placebo (LS Mean): −4.0 mm
  Subject’s pain Assessment Scores, Week 12 (LS Mean): 36.7 mm
[2]; [8]
  Subject’s pain Assessment Scores, % of improvement from Oral Ibuprofen: −10.4%
  Subject’s pain Assessment Scores, % of improvement from baseline: −47.7%
  Subject’s pain Assessment Scores, % of improvement from placebo: −18.5%
  Subject’s pain Assessment Scores, Changes from Baseline (LS Mean): −30.3 mm
  Subject’s pain Assessment Scores, Different from oral ibuprofen (LS Mean): −3.8 mm
  Subject’s pain Assessment Scores, Different from placebo (LS Mean): −11.4 mm
  Subject’s pain Assessment Scores, Week 12 (LS Mean): 33.2 mm
[2]; [9]
  Subject’s pain Assessment Scores, % of improvement from Oral Ibuprofen: −22.0%
  Subject’s pain Assessment Scores, % of improvement from baseline: −58.2%
  Subject’s pain Assessment Scores, % of improvement from placebo: −29.0%
  Subject’s pain Assessment Scores, Changes from Baseline (LS Mean): −39.9 mm
  Subject’s pain Assessment Scores, Different from oral ibuprofen (LS Mean): −14.1 mm
  Subject’s pain Assessment Scores, Different from placebo (LS Mean): −21.0 mm
  Subject’s pain Assessment Scores, Week 12 (LS Mean): 28.7 mm
[2]; [13]
  Subject's pain Assessment Scores, % of improvement from Oral Ibuprofen: 4.9%
  Subject's pain Assessment Scores, % of improvement from Placebo: −3.5%
  Subject's pain Assessment Scores, % of improvement from baseline: −40.5%
  Subject's pain Assessment Scores, Changes from Baseline (LS Mean): −25.6 mm
  Subject's pain Assessment Scores, Week 12 (LS Mean): 37.5 mm
[2]; [14]
  Subject's pain Assessment Scores, % of improvement from Oral Ibuprofen: −3.0%
  Subject's pain Assessment Scores, % of improvement from Placebo: −11.4%
  Subject's pain Assessment Scores, % of improvement from baseline: −48.4%
  Subject's pain Assessment Scores, Changes from Baseline (LS Mean): −31.4 mm
  Subject's pain Assessment Scores, Different from oral ibuprofen (LS Mean): −0.8 mm
  Subject's pain Assessment Scores, Different from placebo (LS Mean): −7.2 mm
  Subject's pain Assessment Scores, Week 12 (LS Mean): 33.5 mm
[2]; [15]
  Subject's pain Assessment Scores, % of improvement from Oral Ibuprofen: −8.2%
  Subject's pain Assessment Scores, % of improvement from Placebo: −16.6%
  Subject's pain Assessment Scores, % of improvement from baseline: −53.6%
  Subject's pain Assessment Scores, Changes from Baseline (LS Mean): −34.6 mm
  Subject's pain Assessment Scores, Different from oral ibuprofen (LS Mean): −4.1 mm
  Subject's pain Assessment Scores, Different from placebo (LS Mean): −10.5 mm
  Subject's pain Assessment Scores, Week 12 (LS Mean): 30.0 mm
